Test results: patent publication US20080287525A1, “Pharmaceuticals for treating or preventing oral diseases” (HAWLEY & HAZEL (BVI) COMPANY LIMITED, priority 2007, published 2008)

Legend:
[1] = test system: Actinomyces viscosus (A. v) ATCC 27044; assay: Micro-dilution MIC test, A. v; assay type: cell-based; settings: 37 °C, 18-24 h, unit not given, method gives concentrations in mg/L (ppm)
Description: (§1) A single colony was picked from the Trypticase Digested Soybean peptone agar blood plate (TSA5B) of ordinarily stored bacteria species and used to inoculate corresponding broth culture medium, which was cultivated in a microaerobic environment (P.g needs anaerobic cultivation) with 95% air, 5% CO2 at 37.0° C.±1.0° C., wherein S.m and S.sa were cultivated for 18-24 h, and the remaining five species were cultivated for 40-48 h. Then corresponding broth cultivate medium was used to adjust the turbidity of the bacteria suspension to 0.5 McFarland standard, equivalent to 1.0×10^8 CFU/mL.
(§2) The operating steps were:
(§3) a. Preparation of the stock solution of antibacterial pharmaceutical: 1% stock solution of various antibacterial pharmaceuticals was prepared with 100% pure ethanol as solvent. The prepared stock solution was filtered to eliminate bacteria, and was distributed into small portions to be used.
(§4) b. Range of measured concentration: the present experiment used 250 ppm as the ceiling measured concentration of the anti-bacterial pharmaceutical.
(§5) c. Measuring method: micro-dilution method. […]
(§6) The bacteria to be tested and standard bacteria were prepared using the same method as above. […] 0.12 mg/L, and the final inoculation quantity was about […] or 5×10^6 bacteria in each well. […]

[2] = test system: Streptococcus mutans (S. m) ATCC 25175; assay: Micro-dilution MIC test, S. m; assay type: cell-based; settings: 37 °C, 18-24 h, unit not given, method gives concentrations in mg/L (ppm)
Description: as §1, §2, §3, §4, §5, §6

[3] = test system: Actinobacilus actinomycetemcomitans (A. a) ATCC 43717; assay: Micro-dilution MIC test, A. a; assay type: cell-based; settings: 37 °C, 18-24 h, unit not given, method gives concentrations in mg/L (ppm)
Description: as §1, §2, §3, §4, §5, §6

[4] = test system: Actinomyces naeslundii (A. n) ATCC 12104; assay: Micro-dilution MIC test, A. n; assay type: cell-based; settings: 37 °C, 18-24 h, unit not given, method gives concentrations in mg/L (ppm)
Description: as §1, §2, §3, §4, §5, §6

[5] = test system: Porphyromonas gingivalis (P. g) ATCC 33277; assay: Micro-dilution MIC test, P. g; assay type: cell-based; settings: anaerobic, 37 °C, 18-24 h, unit not given, method gives concentrations in mg/L (ppm)
Description: as §1, §2, §3, §4, §5, §6

[6] = test system: Fusobacterium nucleatum subsp. Polymorphum (F. n) ATCC 10953; assay: Micro-dilution MIC test, F. n; assay type: cell-based; settings: 37 °C, 18-24 h, unit not given, method gives concentrations in mg/L (ppm)
Description: as §1, §2, §3, §4, §5, §6

[7] = test system: Streptococcus sanguis (S. sa) ATCC 10556; assay: Micro-dilution MIC test, S. sa; assay type: cell-based; settings: 37 °C, 18-24 h, unit not given, method gives concentrations in mg/L (ppm)
Description: as §1, §2, §3, §4, §5, §6

GM-CSF = assay: Anti-inflammatory test in KB cells, LUMINEX, GM-CSF; assay type: cell-based, human; settings: KB cell supernatant, the larger the value, the stronger the anti-inflammatory ability
Description: (§7) Anti-inflammatory activity was assessed using the KB cell (the epidermis cancer cell in human oral cavity). During the experiment, the KB cell inoculated in the cultivating plate was treated with or without positive control or Mulberrofuran G. After the treatment, the supernatant of the cultivating medium was collected and stored in −80° C. refrigerator. Inflammation was assessed by measuring several inflammation markers: Prostaglandin E2 (PGE2) in the supernatant was detected by Enzyme-linked immunsorbent assay, and LUMINEX™ multifunctional liquid-phase chip analysis system was used for the detection of granulocyte monocyte colony stimulating factor (GM-CSF), tumor necrosis factor-alpha (TNF-α), and interleukins 1-beta and 6 ([…] and IL-6).
(§8) LUMINEX™ multifunctional liquid-phase chip analyses of GM-CSF, TNF-α, IL-1 and IL-6: The 96-well plate was enclosed with enclosing liquid for 30 minutes. Fluorescent microspheres were added into the 96-well plate after dilution. The standard and the samples to be measured were added, and incubated overnight at 4° C. The next day, the supernatant was discarded and 50 μL GM-CSF, TNF-α, IL-1β and IL-6 antibodies were added to each well. After being rinsed for 4 times, the 96-well plate was placed in a shaking table, which was in ambient temperature, to keep the plate away from light for one hour. […]

IL-1β = assay: Anti-inflammatory test in KB cells, LUMINEX, IL-1β; assay type: cell-based, human; settings: KB cell supernatant, the larger the value, the stronger the anti-inflammatory ability
Description: as §7, §8

IL-6 = assay: Anti-inflammatory test in KB cells, LUMINEX, IL-6; assay type: cell-based, human; settings: KB cell supernatant, the larger the value, the stronger the anti-inflammatory ability
Description: as §7, §8

TNF-α = assay: Anti-inflammatory test in KB cells, LUMINEX, TNF-α; assay type: cell-based, human; settings: KB cell supernatant, the larger the value, the stronger the anti-inflammatory ability
Description: as §7, §8

Structure (SMILES): CC1=C[C@H]2c3c(O)cc(-c4cc5ccc(O)cc5o4)cc3O[C@@]3(c4ccc(O)cc4O)Oc4cc(O)ccc4[C@H](C1)[C@@H]23 [Mulberrofuran G, 3aH-Benzo[3,4][2]benzopyrano[1,8-bc][1]-benzopyran-4,11-diol, 8a-(2,4-dihydroxphenyl)-1,8a,13b,13c-tetrahydro-6-(6-hydroxy-2-benzofuranyl)-2-methyl-, (3a,S,8aS,13bS,13cR)-]
- MIC, A. v ATCC 27044 [1]: 2.4
- MIC, S. m ATCC 25175 [2]: 3.9
- MIC, A. a ATCC 43717 [3]: 2.4
- MIC, A. n ATCC 12104 [4]: 1.9
- MIC, P. g ATCC 33277 [5]: 1.9
- MIC, F. n ATCC 10953 [6]: 7.8
- MIC, S. sa ATCC 10556 [7]: 7.8
- anti-inflammatory effect, GM-CSF (GM-CSF): 8%
- anti-inflammatory effect, IL-1β (IL-1β): 18%
- anti-inflammatory effect, IL-6 (IL-6): 48%
- anti-inflammatory effect, TNF-α (TNF-α): 90%

Structure (SMILES): Oc1cc(Cl)ccc1Oc1ccc(Cl)cc1Cl [Triclosan, reference compound]
- anti-inflammatory effect, IL-1β (IL-1β): 7%
- anti-inflammatory effect, IL-6 (IL-6): 31%
- anti-inflammatory effect, TNF-α (TNF-α): 81%
